Structures can show the parent of a compound that is named as a salt.
What follows are compounds tested against human KV7.2/KV7.3 (Homo sapiens (Human), UniProt O43525+O43526) (assay: Potassium flux assay (IPG-2 AM dye)). Details: TREX HEK 293 or HEK 293 cells expressing human KV7.2/KV7.3; arithmetic mean values.
Type: cell-based
Procedure, shortened: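 HEK 293 or TREX HEK 293 cells stably expressing human KV7.2/KV7.3 (tetracycline-induced where needed), loaded with IPG-2 AM, then compound for 20 min at room temperature. Flux triggered by K challenge buffer (10 mM KCl, pH 7.4), read at 530/558 nm; EC50 from 16-point 2-fold series from 30 μM, normalised to DMSO and reference modulator.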

EC50, < 1000 nM:
COC1(COc2ccc3c(Nc4ccc(Cl)nc4)nccc3c2)CCC1 [Example 288, N-(6-chloropyridin-3-yl)-6-((1-methoxycyclobutyl)methoxy)isoquinolin-1-amine]
Clc1ccc(Nc2nccc3cc(OC4CCC45COC5)ccc23)cn1 (stereo not shown) [Example 290, 6-((2-oxaspiro[3.3]heptan-5-yl)oxy)-N-(6-chloropyridin-3-yl)isoquinolin-1-amine]
Cn1cc(COc2ccc3c(Nc4ccc(Cl)nc4)nccc3c2)c(Cl)n1 [Example 292, 6-((3-chloro-1-methyl-1H-pyrazol-4-yl)methoxy)-N-(6-chloropyridin-3-yl)isoquinolin-1-amine]
CC1(COc2ccc3c(Nc4ccc(Cl)nc4)nccc3c2)CS(=O)(=O)C1 [Example 293, 3-(((1-((6-chloropyridin-3-yl)amino)isoquinolin-6-yl)oxy)methyl)-3-methylthietane 1,1-dioxide]
NS(=O)(=O)C1(COc2ccc3c(Nc4ccc(Cl)nc4)nccc3c2)CCC1 [Example 294, 1-(((1-((6-chloropyridin-3-yl)amino)isoquinolin-6-yl)oxy)methyl)cyclobutane-1-sulfonamide]
Clc1ccc(Nc2nccc3cc(O[C@@H]4CCOC4)ccc23)cn1 [Example 297, (R)-N-(6-chloropyridin-3-yl)-6-((tetrahydrofuran-3-yl)oxy)isoquinolin-1-amine trifluoroacetate]
CC1(C)OCC(COc2ccc3c(Nc4ccc(Cl)nc4)nccc3c2)O1 (stereo not shown) [Example 299, N-(6-chloropyridin-3-yl)-6-((2,2-dimethyl-1,3-dioxolan-4-yl)methoxy)isoquinolin-1-amine]
O=S1(=O)CC(COc2ccc3c(Nc4ccc(Cl)nc4)nccc3c2)C1 [Example 300, 3-(((1-((6-chloropyridin-3-yl)amino)isoquinolin-6-yl)oxy)methyl)thietane 1,1-dioxide]
Clc1ccc(Nc2nccc3cc(OCc4cnsc4)ccc23)cn1 [Example 301, N-(6-chloropyridin-3-yl)-6-(isothiazol-4-ylmethoxy)isoquinolin-1-amine]
COCC1(COc2ccc3c(Nc4ccc(Cl)nc4)nccc3c2)COC1 [Example 306, N-(6-chloropyridin-3-yl)-6-((3-(methoxymethyl)oxetan-3-yl)methoxy)isoquinolin-1-amine]
CC(=O)N[C@H]1CC[C@@H](Oc2ccc3c(Nc4ccc(Cl)nc4)nccc3c2)CC1 [Example 316, N-(cis-4-((1-((6-chloropyridin-3-yl)amino)isoquinolin-6-yl)oxy)cyclohexyl)acetamide]
CC(=O)N1CCC(COc2ccc3c(Nc4ccc(Cl)nc4)nccc3c2)CC1 [Example 318, 1-(4-(((1-((6-chloropyridin-3-yl)amino)isoquinolin-6-yl)oxy)methyl)piperidin-1-yl)ethan-1-one]
FC(F)C1(COc2ccc3c(Nc4ccc(Cl)nc4)nccc3c2)CC1 [Example 326, N-(6-chloropyridin-3-yl)-6-((1-(difluoromethyl)cyclopropyl)methoxy)isoquinolin-1-amine]
FC(F)C1(COc2ccc3c(Nc4ccc(Cl)nc4)nccc3c2)COC1 [Example 327, N-(6-chloropyridin-3-yl)-6-((3-(difluoromethyl)oxetan-3-yl)methoxy)isoquinolin-1-amine]

EC50, 1000 to 10000 nM:
CS(=O)(=O)C1(COc2ccc3c(Nc4ccc(Cl)nc4)nccc3c2)CCC1 [Example 287, N-(6-chloropyridin-3-yl)-6-((1-(methylsulfonyl)cyclobutyl)methoxy)isoquinolin-1-amine]
Clc1ccc(Nc2nccc3cc(OCc4cnn(C5CC5)c4)ccc23)cn1 [Example 289, N-(6-chloropyridin-3-yl)-6-((1-cyclopropyl-1H-pyrazol-4-yl)methoxy)isoquinolin-1-amine]
Cn1ncc(COc2ccc3c(Nc4ccc(Cl)nc4)nccc3c2)c1Cl [Example 291, 6-((5-chloro-1-methyl-1H-pyrazol-4-yl)methoxy)-N-(6-chloropyridin-3-yl)isoquinolin-1-amine]
Clc1ccc(Nc2nccc3cc(OCc4cnn(Cc5ccccc5)c4)ccc23)cn1 [Example 295, 6-((1-benzyl-1H-pyrazol-4-yl)methoxy)-N-(6-chloropyridin-3-yl)isoquinolin-1-amine]
CC(Cc1cnn(C)c1)Oc1ccc2c(Nc3ccc(Cl)nc3)nccc2c1 (stereo not shown) [Example 296, N-(6-chloropyridin-3-yl)-6-((1-(1-methyl-1H-pyrazol-4-yl)propan-2-yl)oxy)isoquinolin-1-amine]
Clc1ccc(Nc2nccc3cc(O[C@H]4CCOC4)ccc23)cn1 [Example 298, (S)-N-(6-chloropyridin-3-yl)-6-((tetrahydrofuran-3-yl)oxy)isoquinolin-1-amine trifluoroacetate]
C[C@]1(COc2ccc3c(Nc4ccc(Cl)nc4)nccc3c2)CCCO1 [Example 302, (R)—N-(6-chloropyridin-3-yl)-6-((2-methyltetrahydrofuran-2-yl)methoxy)isoquinolin-1-amine]
C[C@@]1(COc2ccc3c(Nc4ccc(Cl)nc4)nccc3c2)CCCO1 [Example 303, (S)—N-(6-chloropyridin-3-yl)-6-((2-methyltetrahydrofuran-2-yl)methoxy)isoquinolin-1-amine]
Clc1ccc(Nc2nccc3cc(COc4cn[nH]c4)ccc23)cn1 [Example 304, 6-(((1H-pyrazol-4-yl)oxy)methyl)-N-(6-chloropyridin-3-yl)isoquinolin-1-amine]
Cn1cnc(COc2ccc3c(Nc4ccc(Cl)nc4)nccc3c2)n1 [Example 307, N-(6-chloropyridin-3-yl)-6-((1-methyl-1H-1,2,4-triazol-3-yl)methoxy)isoquinolin-1-amine]
Cc1ncc(Nc2nccc3cc(OCc4cncnc4)ccc23)cn1 [Example 308, N-(2-methylpyrimidin-5-yl)-6-(pyrimidin-5-ylmethoxy)isoquinolin-1-amine]
CC(=O)N1CC(COc2ccc3c(Nc4ccc(Cl)nc4)nccc3c2)C1 [Example 309, 1-(3-(((1-((6-chloropyridin-3-yl)amino)isoquinolin-6-yl)oxy)methyl)azetidin-1-yl)ethan-1-one]
FC(F)(F)CN1CC(COc2ccc3c(Nc4ccc(Cl)nc4)nccc3c2)C1 [Example 310, N-(6-chloropyridin-3-yl)-6-((1-(2,2,2-trifluoroethyl)azetidin-3-yl)methoxy)isoquinolin-1-amine]
Cn1cc(Oc2ccc3c(Nc4ccc(Cl)nc4)nccc3c2)cn1 [Example 311, N-(6-chloropyridin-3-yl)-6-((1-methyl-1H-pyrazol-4-yl)oxy)isoquinolin-1-amine]
CC(=O)N1CCC(Oc2ccc3c(Nc4ccc(Cl)nc4)nccc3c2)CC1 [Example 312, 1-(4-((1-((6-chloropyridin-3-yl)amino)isoquinolin-6-yl)oxy)piperidin-1-yl)ethan-1-one]
Clc1ccc(Nc2nccc3cc(OC4CCN(C5COC5)CC4)ccc23)cn1 [Example 313, N-(6-chloropyridin-3-yl)-6-((1-(oxetan-3-yl)piperidin-4-yl)oxy)isoquinolin-1-amine]
Clc1ccc(Nc2nccc3cc(OC4CCN(Cc5ncccn5)CC4)ccc23)cn1 [Example 314, N-(6-chloropyridin-3-yl)-6-((1-(pyrimidin-2-ylmethyl)piperidin-4-yl)oxy)isoquinolin-1-amine]
FC(F)CN1CCC(Oc2ccc3c(Nc4ccc(Cl)nc4)nccc3c2)CC1 [Example 315, N-(6-chloropyridin-3-yl)-6-((1-(2,2-difluoroethyl)piperidin-4-yl)oxy)isoquinolin-1-amine]
CC(=O)N[C@H]1CC[C@H](Oc2ccc3c(Nc4ccc(Cl)nc4)nccc3c2)CC1 [Example 317, N-(trans-4-((1-((6-chloropyridin-3-yl)amino)isoquinolin-6-yl)oxy)cyclohexyl)acetamide]
C[C@@H]1CN(CCOc2ccc3c(Nc4ccc(Cl)nc4)nccc3c2)C[C@H](C)O1 [Example 319, N-(6-chloropyridin-3-yl)-6-(2-((2S,6R)-2,6-dimethylmorpholino)ethoxy)isoquinolin-1-amine]
COC(=O)C1COCCN1CCOc1ccc2c(Nc3ccc(Cl)nc3)nccc2c1 (stereo not shown) [Example 320, methyl 4-(2-((1-((6-chloropyridin-3-yl)amino)isoquinolin-6-yl)oxy)ethyl)morpholine-3-carboxylate]
C[C@H]1COCCN1CCOc1ccc2c(Nc3ccc(Cl)nc3)nccc2c1 [Example 321, (S)-N-(6-chloropyridin-3-yl)-6-(2-(3-methylmorpholino)ethoxy)isoquinolin-1-amine]
C[C@@H]1COCCN1CCOc1ccc2c(Nc3ccc(Cl)nc3)nccc2c1 [Example 322, (R)-N-(6-chloropyridin-3-yl)-6-(2-(3-methylmorpholino)ethoxy)isoquinolin-1-amine]
CC1CN(CCOc2ccc3c(Nc4ccc(Cl)nc4)nccc3c2)CCO1 (stereo not shown) [Example 323, N-(6-chloropyridin-3-yl)-6-(2-(2-methylmorpholino)ethoxy)isoquinolin-1-amine]
Cc1ncc(Nc2nccc3cc(OCc4cnn(C)c4)ccc23)cc1O [Example 324, 2-methyl-5-((6-((1-methyl-1H-pyrazol-4-yl)methoxy)isoquinolin-1-yl)amino)pyridin-3-ol]
FC(F)(F)CN1CC(Oc2ccc3c(Nc4ccc(Cl)nc4)nccc3c2)C1 [Example 325, N-(6-chloropyridin-3-yl)-6-((1-(2,2,2-trifluoroethyl)azetidin-3-yl)oxy)isoquinolin-1-amine]

From patent publication US20240101531A1, “PYRIDINAMINE DERIVATIVES AND THEIR USE AS POTASSIUM CHANNEL MODULATORS” (Xenon Pharmaceuticals Inc., priority 2022, published 2024)
